The record followed here is ChEMBL document CHEMBL1135844, “Novel human metabolites of the angiotensin-II antagonist tasosartan and their pharmacological effects” (Bioorg Med Chem Lett, 2002).

Structures are written as SMILES. pIC50: −log10 of the molar value.

The target in this assay is T1, Type-1 angiotensin II receptor (Homo sapiens, UniProt P30556).
T1 sequence (P30556 whole entry): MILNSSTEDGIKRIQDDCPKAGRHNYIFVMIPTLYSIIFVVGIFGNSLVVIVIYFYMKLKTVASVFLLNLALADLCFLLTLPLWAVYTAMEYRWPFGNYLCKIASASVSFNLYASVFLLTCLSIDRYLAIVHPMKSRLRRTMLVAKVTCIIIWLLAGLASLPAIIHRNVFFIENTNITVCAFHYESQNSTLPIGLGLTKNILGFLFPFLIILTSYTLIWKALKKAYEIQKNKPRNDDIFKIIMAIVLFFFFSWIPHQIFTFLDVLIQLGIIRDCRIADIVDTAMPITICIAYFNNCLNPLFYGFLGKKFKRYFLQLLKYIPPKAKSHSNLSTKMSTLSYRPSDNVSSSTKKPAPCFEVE
Briefly: Compound was tested in vitro for inhibitory activity against human Angiotensin II receptor in cultured preadipocytes. It is filed as cell-based.

For `Cc1nc(C(=O)O)c2c(n1)N(Cc1ccc(-c3ccccc3-c3nnn[nH]3)cc1)C(=O)CC2`, the pIC50 (usually the negative decadic logarithm of the IC50, by convention in mol/L) was 7.36.
`O=c1ccc2c(CO)nc(CO)nc2n1Cc1ccc(-c2ccccc2-c2nn[nH]n2)cc1` had a pIC50 of 7.36.
The figure for `Cc1nc(C(=O)O)nc2c1CCC(=O)N2Cc1ccc(-c2ccccc2-c2nnn[nH]2)cc1` is 7.64; for `Cc1nc(C)c2c(n1)N(Cc1ccc(-c3ccccc3-c3nnn[nH]3)cc1)C(=O)CC2` [TASOSARTAN] it is 7.42.
